Laboratory results as given in patent US20090042978A1, “Pharmaceutical Compositions Containing Nitrovinylfuran Derivatives for the Treatment of Leishmaniosis and Trypanosomosis” (CENTRO DE BIOACTIVOS QUIMICOS, priority 2005, published 2009).
Converted amounts (≈) assume the structure as drawn. “And” between values parts separate entries of the source, which are not always exact repeats. Equal entries are not always repeated. Where two headings read alike, the source gives them in different places.

Experiments:
[1] = tested on: L. mexicana amazonensis promastigotes; test: In vitro activity against Leishmania promastigotes (amazonensis); format: cell-based; parameters: CP100: unit not given here; conditions: for IC50: Leishmania mexicana, mean inhibitory concentration, read-out: CI50 (the source's name); for CP100: minimal parasiticidal concentration abolishing motility of all parasites
Experimental: (§1) Mean inhibitory concentrations (Cl50%) against L. mexicana amazonensis, L. donovani infantum and L. braziliensis braziliensis promastigotes were determined according to the method described by Bodley A L et al (J Infect Dis 1995; 172(4):1157-9.). Minimal parasiticidal concentrations (CP100, minimal concentrations capable of abolishing the motility of all parasites in the culture) were also determined. Amphotericin B and Glucantime® were tested as reference drugs.

[2] = tested on: L. braziliensis braziliensis promastigotes; test: In vitro activity against Leishmania promastigotes (braziliensis); format: cell-based; parameters: CP100: unit not given here; conditions: for IC50: Leishmania braziliensis, mean inhibitory concentration, read-out: CI50 (the source's name); for CP100: minimal parasiticidal concentration
Experimental: as §1

[3] = tested on: L. donovani infantum promastigotes; test: In vitro activity against Leishmania promastigotes (infantum); format: cell-based; parameters: CP100: unit not given here; conditions: for IC50: Leishmania donovani, mean inhibitory concentration, read-out: CI50 (the source's name); for CP100: minimal parasiticidal concentration
Experimental: as §1

[4] = tested on: trypomastigotes of T. cruzi; test: In vitro activity against Trypanosoma cruzi; format: cell-based; conditions: for IC50: Trypanosoma cruzi, T. cruzi trypomastigotes grown in rat myoblast cell line, read-out: CI50 (the source's name); for CP100: minimal concentration that immobilizes all parasites
Experimental: The in vitro activity of the β-nitrovinylfuran derivatives was tested against trypomastigotes of T. cruzi grown in a rat myoblast cell line. Minimal parasiticidal concentrations (minimal concentration that immobilizes all the parasites in the culture) and mean inhibitory concentrations (concentration that reduces the number of parasites to 50% of those found in the un-treated control cultures) were determined according to Buckner's method (Antimicrob Agents Chemother 1996; 40(11):2592-7).

[5] = Toxicological studies (LD50, LD0, MTD), intraperitoneal; format: in vivo, female Balb/c mice; conditions: for MTD at 14 days: female, Balb/c; for LD0: maximal non-lethal dose calculated from dose-mortality curves, single i.p. injection; for LD50: single intraperitoneal injection, female Balb/c mice
Experimental: The same animal model used for in vivo anti-leishmanial tests was used to perform comparative toxicological studies of the β-nitrovinylfuran derivatives. The main excipient of the compositions used with this purpose was the sunflower oil. The mean lethal doses (LD50) of each β-nitrovinylfuran derivative and Amphotericin B were estimated in female Balb/c mice (18-20g body weight), treated by a single intraperitoneal injection. The maximal non-lethal doses (LD0) were calculated from the dose-mortality curves. The maximal tolerated doses (MTD, maximal dose causing neither mortality nor body weight losses over 10% respect to the initial weight) by repeated intraperitoneal administration every 12 or 24 h during 14 days were determined as well.

[6] = tested on: L. m. amazonensis; test: Experimental cutaneous leishmaniosis, early stage lesions treated every 24 h; format: in vivo, Balb/c mice; conditions: for lesion evolution versus controls: during and after 14 days treatment, Amphotericin B 1 mg/Kg; for lesion evolution versus controls / lesion growth: D 5 mg/Kg; for lesion growth: i.p. daily, F 50 mg/Kg
Experimental: (§2) Balb/c mice were experimentally infected with L. m. amazonensis promastigotes by intradermal injection in the footpads and six weeks later they were treated with the test compounds by intraperitoneal route. The product 2-bromo-5-(2-bromo-2-nitrovinyl)-furan was administered at a dose of 5 mg/Kg; the 2-bromo-5-(2-methyl-2-nitrovinyl)-furan, at 50 mg/Kg and Amphotericin B, at 1 mg/Kg. Animals were daily dosed for 14 days. Miglyol 810, the vehicle used for the β-nitrovinylfuran derivatives, was similarly administered to a group of mice.

[7] = tested on: L. m. amazonensis; test: Experimental cutaneous leishmaniosis, chronic lesions treated every 12 h; format: in vivo, Balb/c mice; conditions: for effectiveness on chronic lesions: first week, F 50 mg/Kg twice a day, Amphotericin B 5 mg/Kg every other day; for lesion size: by the end of treatment (14 days)
Experimental: Mice developed chronic leishmanial lesions at eighteen weeks post-infection. Lesions were ulcerated and covered with a thick crust. The average dorso-plantar diameter of the infected foot was 1.23±0.24 cm and the lateral diameter was 1.24±0.19 cm. At that stage the treatment started twice a day with either 2-bromo-5-(2-bromo-2-nitrovinyl)-furan at 2 mg/Kg; 2-bromo-5-(2-methyl-2-nitrovinyl)-furan at 50 mg/Kg or Amphotericin B at 5 mg/Kg every other day. A control group formed by infected non-treated mice was also included in the experiment. All drugs were administered by intraperitoneal route for 14 days. […] Amphotericin B was not effective, since neither the dorso-plantar nor the lateral diameters differed statistically from the lesions of the control group (P>0.05).

[8] = tested on: Leishmania promastigotes; test: In vitro activity against Leishmania promastigotes (three species); format: cell-based
Experimental: as §1

[9] = tested on: L. m. amazonensis; test: Experimental cutaneous leishmaniosis, early stage lesions treated every 12 h; format: in vivo, Balb/c mice; conditions: for activity compared with Amphotericin B / lesion growth rate: i.p. every 12 h; for lesion growth rate: D 2 mg/Kg, F 100 mg/Kg
Experimental: as §2
The experiment was essentially carried out in a similar way as the one described above. However, 2-bromo-5-(2-bromo-2-nitrovinyl,-furan was administered at a dose of 2 mg/Kg and 2-bromo-5-(2-methyl-2-nitrovinyl)-furan at 100 mg/Kg. Treatments were administered by intraperitoneal route, but every 12 h instead of 24 h.

[10] = tested on: cutaneous leishmaniosis; test: Treatment of human cutaneous leishmaniosis, topical ointment; format: in vivo; conditions: oily ointment 0.15%, topical once a day, 21 days
Experimental: One hundred patients with parasitological diagnose of cutaneous leishmaniosis were treated. Patients were topically treated, once a day, for 21 days with an oily ointment containing 0.15% 2-bromo-5-(2-bromo-2-nitrovinyl)-furan as active ingredient and petrolatum as the main excipient.

[11] = mouse, in vivo, ip, repeated intraperitoneal administration every 24 h during 14 days, read-out: MTD (every 24 h)
[12] = mouse, in vivo, ip, read-out: LD50

Compound	IC50 [1]	CP100 [1]	IC50 [2]	CP100 [2]	IC50 [3]	CP100 [3]	IC50 [4]	CP100 [4]	MTD at 14 days [5, 11]	LD0 [5]	LD50 [5, 12]	also measured
O=[N+]([O-])C=Cc1ccco1 [A, 2-(2-nitrovinyl)-furan]	0.66 µg/mL (≈ 4.74 µM)	1.12	0.2 µg/mL (≈ 1.44 µM)	1.29	0.35 µg/mL (≈ 2.52 µM)	1.75	1.8 µg/mL and 12.6 µM	10.0 μg/mL and 71.9 μM	55 mg/kg	50 mg/kg	68 mg/kg	
C[C@@H]1[C@H](O)[C@@H](C)/C=C/C=C/C=C/C=C/C=C/C=C/C=C/[C@H](O[C@@H]2O[C@H](C)[C@@H](O)[C@H](N)[C@@H]2O)C[C@@H]2O[C@](O)(C[C@@H](O)C[C@@H](O)[C@H](O)CC[C@@H](O)C[C@@H](O)CC(=O)O[C@H]1C)C[C@H](O)[C@H]2C(=O)O [Amphotericin B, reference compound]		0.051		0.028		0.016				15 mg/kg		LD50 [5]: 22 mg/kg; lesion evolution versus controls [6]: evolved similarly to controls; lesion growth rate after discontinuation ([6]; first week after discontinuation of treatment, 1 mg/Kg): remarkable decrease of lesion growth rate; dorso-plantar diameter versus control ([7]; by the end of treatment): incremented their lesion dorso-plantar diameters as controls; lateral diameter versus control ([7]; by the end of treatment): the change was not different; effectiveness on chronic lesions [7]: not effective; activity relative to the β-nitrovinylfuran derivatives [8]: more active than the β-nitrovinylfuran derivatives
O=[N+]([O-])C=Cc1ccc(Br)o1 [B, 2-bromo-5-(2-nitrovinyl)-furan]	0.45 µg/mL (≈ 2.06 µM)	2.08	0.18 µg/mL (≈ 0.826 µM)	0.61	0.23 µg/mL (≈ 1.06 µM)	0.51	1.2 µg/mL and 5.7 µM	3.3 μg/mL and 15.3 μM	20 mg/kg	45 mg/kg	73 mg/kg	
O=C(Cn1ccnc1[N+](=O)[O-])NCc1ccccc1 [Benznidazole, reference compound]							0.9 µg/mL and 3.3 µM	>40 μg/mL and >154 μM				
O=[N+]([O-])C(Br)=Cc1ccco1 [Compound C, 2-(2-bromo-2-nitrovinyl)-furan]	0.63 µg/mL (≈ 2.89 µM)	1.77	0.25 µg/mL (≈ 1.15 µM)	1.25	0.36 µg/mL (≈ 1.65 µM)	2.01	3.7 µg/mL and 16.9 µM	10.0 μg/mL and 45.9 μM		35 mg/kg	51 mg/kg	
O=[N+]([O-])C(Br)=Cc1ccc(Br)o1 [D, 2-bromo-5-(2-bromo-2-nitrovinyl)-furan]	0.25 µg/mL (≈ 0.842 µM)	1.53	0.26 µg/mL (≈ 0.876 µM)	0.49	0.35 µg/mL (≈ 1.18 µM)	0.86	4.1 µg/mL and 13.9 µM	10.0 μg/mL and 33.7 μM	5 mg/kg	15 mg/kg	24 mg/kg	MTD at 14 days ([5]; mouse, in vivo, ip, repeated intraperitoneal administration every 12 h during 14 days, read-out: MTD (every 12 h)): 2 to 3 mg/kg; lesion evolution versus controls [6]: remained for two other weeks after treatment had finished; lesion growth ([6]; first week of treatment): minimal lesion growth; lesion size ([9]; first week of treatment, 2 mg/Kg i.p. every 12 h, P<0.001 vs control): decreased during the first week of treatment; activity compared with Amphotericin B [9]: higher activity than Amphotericin B; lesion growth rate [9]: significantly lower compared to controls; lesion size ([9]; seven days after finishing treatment, P<0.05): smaller than those of controls; dorso-plantar diameter versus control ([7]; by the end of treatment): significantly different; lesion size [7]: decrease of lesion size; dorso-plantar diameter of the infected foot ([7]; first week of treatment, P<0.05 vs control): decrease of the dorso-plantar diameter; lateral diameter of the lesions ([7]; first week of treatment, P>0.05): comparable to the diameter of control mice; side effects [10]: did not evidence any side effect that impeded the continuation of therapy; patients with total cure of the cutaneous lesions ([10]; one hundred patients): 90%
CC(=Cc1ccco1)[N+](=O)[O-] [E, 2-(2-methyl-2-nitrovinyl)-furan]	0.34 µg/mL (≈ 2.22 µM)	3.49	0.35 µg/mL (≈ 2.29 µM)	4.84	0.31 µg/mL (≈ 2.02 µM)	1.27	4.7 µg/mL and 31 µM	30.0 μg/mL and 196.1 μM	60 mg/kg	65 mg/kg	80 mg/kg	
CC(=Cc1ccc(Br)o1)[N+](=O)[O-] [F, 2-bromo-5-(2-methyl-2-nitrovinyl)-furan]	0.2 µg/mL (≈ 0.862 µM)	1.42	0.24 µg/mL (≈ 1.03 µM)	1.32	0.2 µg/mL (≈ 0.862 µM)	0.62	5.3 µg/mL and 23 µM	30.0 μg/mL and 129.3 μM	100 mg/kg	200 mg/kg	246 mg/kg	lesion size change ([6]; first week of treatment, 50 mg/Kg i.p. daily): small decrease in lesion size; lesion growth ([6]; first week of treatment): minimal lesion growth; activity compared with Amphotericin B [9]: higher activity than Amphotericin B; lesion growth rate [9]: significantly lower compared to controls; lesion size [7]: ineffective; effectiveness on chronic lesions [7]: did not prove to be effective
meglumine antimoniate [Glucantime ®, reference compound]		>4250		>4250		>4250						activity relative to the β-nitrovinylfuran derivatives [8]: significantly less active
